Data from patent US7326700B2, “Cyclohexenyl phenyl carboxamides tocolytic oxytocin receptor antagonists” (Wyeth, priority 2001, dated 2008).

Assays:
[1] = molecular target: T1, human vasopressin V2 receptor subtype (Homo sapiens, UniProt P30518); test: Vasopressin binding in CHO cell membranes expressing human vasopressin V2 subtype receptors ([3H]arginine vasopressin radioligand binding); conditions: for IC50: value in parentheses
T1 construct: host or cells: CHO cells, stably transfected (pZeoSV vector)
Excerpt: Chinese Hamster Ovary (CHO) cells stably transfected with the human V2 subtype receptors were obtained from M. Thibonnier, Case Western Reserve University School of Medicine, Cleveland, Ohio.
CHO cells transfected with the human vasopressin V2 subtype receptors obtained from M. Thibonnier (pZeoSV vector) are allowed to grow to confluency (approx. >90%) in T-150 flasks under sterile conditions, in a cell culture medium consisting of F-12 Nutrient Mixture (HAM) with L-glutamine (Gibco Cat. #11765-054) containing 15 mM HEPES (Gibco Cat. #15630-080), 1% antibiotic/antimycotic (add 5 mL 100×, Gibco Cat. #15240-062 per 500 mL F-12), 250 μg/mL Zeocin (add 1.25 mL of 100 mg/mL Invitrogen R-250-01 per 500 mL F-12) and 10% Fetal Bovine Serum (Qualified, heat inactivated, Gibco Cat. #16140-063). The medium is removed by aspiration and the cells washed with 10 mL of Hank's Balanced Salt solution (Gibco Cat. #14175-095). The salt solution is removed by aspiration and the cells trypsinized with 5 mL of trypsin-EDTA (0.05% trypsin, 0.53 mM EDTA-4Na, Gibco Cat. #25300-070) for 1 min. The trypsin is removed by aspiration and the cells dislodged by tapping. Cell Culture medium (e.g. 30 mL for 1:30 split) is immediately added and mixed well to inactivate trypsin. 1 mL of detached cells is added to new culture flasks containing fresh Cell Culture medium (e.g. into 25 mL per T-150 flask), and mixed gently. The cells are incubated at 37° C. in 5% CO2. The medium is changed at 3 to 4 day interval (or as appropriate). The cells grow to confluency (approx. >75%-95%) within 7-8 days. All steps are done under sterile conditions.
The cells are washed twice gently with Hank's Balanced Salt solution (e.g. use 10 mL per T-150 flask). The excess solution is removed and the cells bathed for 15-30 min. in an enzyme-free Cell Dissociation Buffer (e.g. use 8 mL Hank's Based, Gibco Cat. #13150-016 per T-150 flask) until cells are loosened. The contents are transferred to centrifuge tubes (50 mL) kept in an ice bath. All subsequent steps are done at 4° C. The tubes are centrifuged at 300×g for 15 min (1380 rpm on SORVAL, Model RT6000D, using the rotor for 50 mL tubes). The supernatant is discarded and the cells suspended in homogeneizing buffer(10 mM Tris-HCl containing 0.25 M sucrose and 1 mM EDTA, pH 7.4) ensuring that the volume of the buffer is about ten times the volume of the cell pellet. The cells are pooled into a centrifuge tube (50 mL) and homogenized with Polytron at setting 6 for 10 sec. The homogenate is transferred into a Potter-Elvjehm homogeneizer and homogenized with 3 strokes. The homogenate is centrifuged at 1500×g for 60 min at 4° C. (3100 rpm using SORVAL, model RT6000D, using the rotor for 50 mL tubes). The pellet is discarded. The supernatant is centrifuged at 100,000×g for 60 min. at 4° C. (Beckman L8-80M ultracentrifuge; spin at 37,500 rpm with rotor type 70 Ti for 50 mL tubes; 38,000 rpm with type 80 Ti for 15 mL tubes; or 35,800 rpm with rotor type 45Ti). The supernantant is discarded and the pellet suspended in 3 to 4 mL of Tris buffer (50 mM TRIS-HCl, pH 7.4). The protein content is estimated by the Bradford or Lowry method. The volume of the membrane suspension is adjusted with the membrane buffer (50 mM Tris-HCl containing 0.1% BSA and 0.1 mM PMSF) to give 3.0 mg/mL (or as appropriate) of protein. The membranes are aliquoted and stored at −70° C.
In wells of a 96-well format microtiter plate, is added 90, 110 or 130 μL (to make up a final volume of 200 μL) of assay buffer containing 50 mM of Tris-HCl (pH 7.4), […], 1 mg % aprotinin, 1 mg % leupeptin, 2 mg % 1,10-phenanthroline, 10 mg % trypsin inhibitor, and 0.1 mM PMSF. The inhibitors are added on the day of the experiment. The components are mixed at room temperature, and then kept in ice bath following adjustment of the pH to 7.4. […]

Compound	IC50 [1]	melting point	V2 % inhibition @ 100 nM ([1]; 100 nM)	further results
COc1cc(C2=CCCCC2)c(Cl)cc1C(=O)N1Cc2ccc(C(=O)N3CCC[C@H]3CN3CCCC3)n2Cc2ccccc21 [Example 1, 4-Chloro-5-cyclohex-1-en-1-yl-2-[(3-{[(2S)-2-(pyrrolidin-1-ylmethyl)pyrrolidin-1-yl]carbonyl}-5H-pyrrolo [2,1-c][1,4]benzodiazepin-10(11H)-yl)carbonyl]phenyl methyl ether]	> 3000 nM	109 to 121 °C		
CC1=C(c2ccc(C(=O)N3Cc4ccc(C(=O)N5CCN(C)CC5)n4Cc4ccccc43)cc2C)CCC[C@H]1O [Example 11, [4-((3R)-3-Hydroxy-2-methyl-cyclohex-1-en-1-yl)-3-methyl-phenyl]-[3-(4-methyl-piperazine-1-carbonyl)-10,11-dihydro-5H-pyrrolo [2,1-c][1,4]benzodiazepin-10-yl]-methanone]		102 to 153 °C		inhibition at 0.1 µM ([1]; 100 nM): 14%
Cc1cc(C(=O)N2Cc3ccc(C(=O)N4CCN(C(C)C)CC4)n3Cc3ccccc32)ccc1C1=CCCCC1 [Example 25, {10-[4-(1-Cyclohex-1-en-1-yl)-3-methylbenzoyl]-1 0,11-dihydro-5H-pyrrolo[2,1-c][1,4]benzodiazepin-3-yl}(4-isopropyl-1-piperazinyl)methanone]			10%	
Cc1cc(C(=O)N2Cc3ccc(C(=O)N4CCC[C@H]4CN4CCCC4)n3Cc3ccccc32)ccc1C1=CCCCC1 [Example 26, {10-[4-(1-Cyclohex-1-en-1-yl)-3-methylbenzoyl]-10,11-dihydro-5H-pyrrolo[2,1-c][1,4]benzodiazepin-3-yl}[(2S)-2-(1-pyrrolidinylmethyl)pyrrolidinyl]methanone]			9%	
Cc1cc(C(=O)N2Cc3ccc(C(=O)N4CC[C@@H](N(C)C)C4)n3Cc3ccccc32)ccc1C1=CCCCC1 [Example 27, {10-[4-(1-Cyclohex-1-en-1-yl)-3-methylbenzoyl]-10,11-dihydro-5H-pyrrolo[2,1-c][1,4]benzodiazepin-3-yl}[(3R)-3-(dimethylamino)pyrrolidinyl]methanone]			10%	
{10-[4-(1-Cyclohexen-1-yl)-3-methylbenzoyl]-10,11-dihydro-5H-pyrrolo[2,1-c][1,4]benzodiazepin-3-yl}(4-methyl-piperazin-1-yl)methanone [Example 12]	> 1000 nM			
